Assay results from ChEMBL document CHEMBL4622975 (J Med Chem, 2020).
Calls of active or inactive are those of the source. The calls are words filed in the database; no cut-off is given here.

Experiments:
[1] = target: T1, Phosphotyrosine protein phosphatase (Mycobacterium tuberculosis, UniProt A0A045ISB3)
T1 sequence (A0A045ISB3 whole entry): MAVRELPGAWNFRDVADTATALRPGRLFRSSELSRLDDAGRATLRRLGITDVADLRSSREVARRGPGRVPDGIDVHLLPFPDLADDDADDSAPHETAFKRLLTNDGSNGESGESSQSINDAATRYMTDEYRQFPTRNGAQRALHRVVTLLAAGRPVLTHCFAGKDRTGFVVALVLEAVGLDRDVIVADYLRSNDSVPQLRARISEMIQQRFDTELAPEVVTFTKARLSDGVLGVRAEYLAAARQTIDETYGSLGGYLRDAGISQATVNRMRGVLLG
Description: Inhibition of Mycobacterium tuberculosis PTPB expressed in Escherichia coli BL21 (DE3) using p-nitrophenyl phosphate as substrate measured after 30 mins by UV-vis spectrophotometric method

[2] = target: T2, Tyrosine-protein phosphatase non-receptor type 1 (Homo sapiens, UniProt P18031)
T2 sequence (P18031 whole entry): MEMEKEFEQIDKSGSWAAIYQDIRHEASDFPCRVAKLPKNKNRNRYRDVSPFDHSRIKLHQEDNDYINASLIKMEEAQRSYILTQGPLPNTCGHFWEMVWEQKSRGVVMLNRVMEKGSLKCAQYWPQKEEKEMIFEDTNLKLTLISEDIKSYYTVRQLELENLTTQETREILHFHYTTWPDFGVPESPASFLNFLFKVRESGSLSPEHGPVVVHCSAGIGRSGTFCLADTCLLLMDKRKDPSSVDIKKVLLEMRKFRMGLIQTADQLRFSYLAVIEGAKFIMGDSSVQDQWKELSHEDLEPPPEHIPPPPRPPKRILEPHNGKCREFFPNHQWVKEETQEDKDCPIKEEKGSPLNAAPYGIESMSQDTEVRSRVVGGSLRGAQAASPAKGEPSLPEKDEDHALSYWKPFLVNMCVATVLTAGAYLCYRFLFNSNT

[3] = target: Tyrosine-protein phosphatase non-receptor type 6 (Homo sapiens, UniProt P29350)
Sequence of Tyrosine-protein phosphatase non-receptor type 6 (P29350 whole entry): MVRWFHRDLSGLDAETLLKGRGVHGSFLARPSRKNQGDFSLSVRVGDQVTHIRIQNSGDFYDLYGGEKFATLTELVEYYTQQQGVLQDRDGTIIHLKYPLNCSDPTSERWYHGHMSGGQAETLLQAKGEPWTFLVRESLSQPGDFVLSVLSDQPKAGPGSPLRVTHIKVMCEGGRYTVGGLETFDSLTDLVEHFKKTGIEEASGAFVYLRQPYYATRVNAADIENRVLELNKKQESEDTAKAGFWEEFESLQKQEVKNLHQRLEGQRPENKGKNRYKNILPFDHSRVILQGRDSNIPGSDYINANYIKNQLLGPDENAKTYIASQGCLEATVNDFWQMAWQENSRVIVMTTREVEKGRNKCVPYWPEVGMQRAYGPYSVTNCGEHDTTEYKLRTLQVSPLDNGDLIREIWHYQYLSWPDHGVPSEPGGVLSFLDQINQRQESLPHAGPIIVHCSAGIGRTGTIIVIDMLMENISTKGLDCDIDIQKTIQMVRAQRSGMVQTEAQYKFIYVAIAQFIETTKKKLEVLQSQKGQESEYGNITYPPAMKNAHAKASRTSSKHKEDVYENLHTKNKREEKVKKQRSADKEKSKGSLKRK

[4] = target: T3, Tyrosine-protein phosphatase non-receptor type 11 (Homo sapiens, UniProt Q06124)
T3 sequence (Q06124 whole entry): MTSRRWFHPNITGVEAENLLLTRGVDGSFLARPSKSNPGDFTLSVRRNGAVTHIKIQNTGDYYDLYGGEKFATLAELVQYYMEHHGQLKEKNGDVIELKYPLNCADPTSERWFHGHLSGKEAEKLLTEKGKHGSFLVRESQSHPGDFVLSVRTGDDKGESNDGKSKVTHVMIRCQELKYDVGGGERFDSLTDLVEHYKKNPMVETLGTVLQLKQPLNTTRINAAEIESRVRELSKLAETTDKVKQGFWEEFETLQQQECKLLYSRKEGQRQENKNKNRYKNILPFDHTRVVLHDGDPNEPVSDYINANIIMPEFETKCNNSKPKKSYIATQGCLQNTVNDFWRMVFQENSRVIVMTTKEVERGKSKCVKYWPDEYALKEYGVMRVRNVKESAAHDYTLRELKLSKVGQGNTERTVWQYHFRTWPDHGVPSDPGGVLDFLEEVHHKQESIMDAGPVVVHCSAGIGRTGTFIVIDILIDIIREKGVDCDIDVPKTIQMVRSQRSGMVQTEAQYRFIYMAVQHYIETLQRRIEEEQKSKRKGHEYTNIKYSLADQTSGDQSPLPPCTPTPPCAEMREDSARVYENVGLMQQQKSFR

[5] = tested on: MEF; test: Cytotoxicity against MEF at 25 uM measured after 72 hrs by MTT assay; type: cell-based; conditions: mouse
[6] = Stability in CD1 mouse pooled liver microsomes measured after 2 hrs in absence of NADPH by LC-MS/MS analysis; type: ADME, Microsome
[7] = Drug uptake in mouse RAW264.7 cells at 20 uM measured after 2 hrs by LC-MS analysis; type: ADME, cell-based; conditions: raw264.7, 2 h
[8] = target: T4, Phosphotyrosine protein phosphatase (Mycobacterium tuberculosis) (UniProt A0A045ISB3)
T4 sequence (whole entry): T1 sequence (A0A045ISB3 whole entry)
Description: Time-dependent inhibition of Mycobacterium tuberculosis PTPB expressed in Escherichia coli BL21 (DE3) using p-nitrophenyl phosphate as substrate in presence of Triton-X-100 by UV-vis spectrophotometric method

[9] = target: T4, Phosphotyrosine protein phosphatase (Mycobacterium tuberculosis); remark: listed apart in the source
Description: Time-dependent inhibition of Mycobacterium tuberculosis PTPB expressed in Escherichia coli BL21 (DE3) using p-nitrophenyl phosphate as substrate in absence of Triton-X-100 by UV-vis spectrophotometric method

[10] = target: Receptor-type tyrosine-protein phosphatase epsilon (Homo sapiens, UniProt P23469)
Sequence of Receptor-type tyrosine-protein phosphatase epsilon (P23469 whole entry): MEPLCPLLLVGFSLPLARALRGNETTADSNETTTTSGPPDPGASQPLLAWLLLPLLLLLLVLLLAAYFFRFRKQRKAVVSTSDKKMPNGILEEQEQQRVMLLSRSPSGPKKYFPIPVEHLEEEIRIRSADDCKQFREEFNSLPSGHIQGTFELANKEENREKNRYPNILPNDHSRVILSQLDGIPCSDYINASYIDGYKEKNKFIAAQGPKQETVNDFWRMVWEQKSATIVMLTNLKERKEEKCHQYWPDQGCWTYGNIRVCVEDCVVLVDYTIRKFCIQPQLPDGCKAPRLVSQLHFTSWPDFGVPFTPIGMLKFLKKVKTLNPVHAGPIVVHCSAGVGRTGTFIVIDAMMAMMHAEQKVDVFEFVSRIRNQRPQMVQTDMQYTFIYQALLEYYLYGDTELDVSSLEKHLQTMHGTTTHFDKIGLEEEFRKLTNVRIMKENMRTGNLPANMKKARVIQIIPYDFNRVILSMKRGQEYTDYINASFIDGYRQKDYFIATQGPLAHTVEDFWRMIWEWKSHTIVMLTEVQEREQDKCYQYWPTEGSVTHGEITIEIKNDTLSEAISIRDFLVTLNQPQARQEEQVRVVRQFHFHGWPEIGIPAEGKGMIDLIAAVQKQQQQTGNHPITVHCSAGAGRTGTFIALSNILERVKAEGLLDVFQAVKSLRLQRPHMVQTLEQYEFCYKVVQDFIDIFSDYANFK

| SMILES | IC50 [1] | IC50 [2] | IC50 [3] | IC50 [4] | other results |
| --- | --- | --- | --- | --- | --- |
| COC(=O)c1cc(C#Cc2ccc(NC(=O)C(=O)O)cc2)ccc1O | 0.025 µM | > 50 µM | > 50 µM |  |  |
| O=C(O)C(=O)Nc1ccc(C#Cc2ccccc2)cc1 | 0.257 µM | > 100 µM | > 100 µM | > 100 µM |  |
| CC(C)(C)OC(=O)Nc1ccc(C#Cc2ccc(NC(=O)C(=O)O)cc2)cc1 |  | > 50 µM | > 50 µM | > 50 µM | Activity [5]: Non-Toxic |
| O=C(O)C(=O)Nc1ccc(C#Cc2ccc(C(F)(F)F)cc2Br)cc1 |  |  |  |  | Stability [6]: Stable; Drug uptake [7]: Active |
| COC(=O)c1ccc(C#Cc2ccc(NC(=O)C(=O)O)cc2)cc1O |  | > 50 µM | > 50 µM | > 50 µM |  |
| O=C(O)C(=O)Nc1ccc(C#Cc2ccc(O)c(Br)c2)cc1 |  | > 50 µM | > 50 µM |  |  |
| CN(C)c1cc(O)c(C(=O)O)cc1C#Cc1cccc(NC(=O)C(=O)O)c1 | 0.16 µM |  |  |  |  |
| CC(C)(C)OC(=O)NCC#Cc1ccc(NC(=O)C(=O)O)cc1 |  | > 100 µM |  |  |  |
| O=C(O)C(=O)Nc1ccc(C#Cc2ccc(C(F)(F)F)cc2F)cc1 |  | > 30 µM | > 30 µM | > 30 µM | Stability [6]: Stable; Drug uptake [7]: Active |
| COC(=O)c1cc(C#Cc2cccc(NC(=O)C(=O)O)c2)c(N(C)C)cc1O |  | > 50 µM | > 50 µM | > 50 µM |  |
| NS(=O)(=O)c1ccc(C#Cc2ccc(NC(=O)C(=O)O)cc2)cc1 |  | > 50 µM |  | > 50 µM |  |
| O=C(O)C(=O)Nc1ccccc1 |  | > 100 µM |  | > 100 µM |  |
| O=C(O)C(=O)Nc1ccc(C#Cc2ccc3ccccc3c2)cc1 |  | > 50 µM | > 50 µM | > 50 µM |  |
| O=C(O)C(=O)Nc1ccc(CCc2ccccc2)cc1 | 1.27 µM | > 30 µM |  | > 30 µM |  |
| COC(=O)c1cc(C#Cc2ccc(NC(=O)C(=O)O)cc2)c(N(C)C)cc1O | 0.03 µM | > 50 µM | > 50 µM | > 50 µM |  |
| O=C(O)C(=O)Nc1ccc(C#Cc2cc(C(F)(F)F)cc(C(F)(F)F)c2)cc1 | 0.06 µM | > 50 µM | > 50 µM | > 50 µM | TDI [8]: Active; TDI [9]: Active |

| SMILES | IC50 [1] | IC50 [2] | IC50 [3] | IC50 [4] | other results |
| --- | --- | --- | --- | --- | --- |
| CN(C)c1cc(O)c(C(=O)O)cc1C#Cc1ccc(NC(=O)C(=O)O)cc1 | 0.09 µM | > 100 µM |  |  |  |
| O=C(O)C(=O)Nc1ccc(CCc2ccc(C(F)(F)F)cc2)cc1 | 0.197 µM | > 30 µM |  | > 30 µM |  |
| N#Cc1ccc(C#Cc2ccc(NC(=O)C(=O)O)cc2)cc1 |  | > 50 µM | > 50 µM | > 50 µM |  |
| O=C(O)C(=O)Nc1cccc(C#Cc2ccccc2)c1 |  | > 100 µM |  |  |  |
| O=C(O)C(=O)Nc1ccc(C#Cc2ccc(C(F)(F)F)cc2Cl)cc1 |  | > 30 µM | > 30 µM | > 30 µM | Stability [6]: Stable; Activity [5]: Non-Toxic; Drug uptake [7]: Active |
| O=C(O)C(=O)Nc1ccc(/C=C\c2ccccc2)cc1 | 0.77 µM | > 30 µM |  | > 30 µM |  |
| O=C(O)C(=O)Nc1ccc(C#Cc2cccc(C(F)(F)F)c2)cc1 |  |  | > 50 µM | > 50 µM |  |
| O=C(O)C(=O)Nc1ccc(C#Cc2ccc(O)cc2)cc1 |  | > 50 µM | > 50 µM | > 50 µM |  |
| O=C(O)C(=O)Nc1ccc(C#Cc2ccc(C(F)(F)F)cc2)cc1 |  | > 50 µM | > 50 µM | > 50 µM | Stability [6]: Stable; IC50 [10]: > 30 µM; Drug uptake [7]: Active |
| O=C(O)C(=O)Nc1cnc2ccccc2c1 | > 10 µM |  |  |  |  |
| O=C(O)C(=O)Nc1ccc(/C=C\c2ccc(C(F)(F)F)cc2)cc1 | 0.684 µM | > 30 µM |  | > 30 µM |  |
| O=C(O)C(=O)Nc1ccc(C#Cc2ccc(OC(F)(F)F)cc2)cc1 |  | > 50 µM | > 50 µM | > 50 µM |  |
| C#Cc1ccc(NC(=O)C(=O)O)cc1 |  | > 100 µM |  | > 100 µM |  |
| O=C(O)C(=O)Nc1ccc(C#Cc2ccc(C(F)(F)F)cc2C(F)(F)F)cc1 |  | > 30 µM | > 30 µM | > 30 µM |  |
| CC(C)(C)c1ccc(C#Cc2ccc(NC(=O)C(=O)O)cc2)cc1 | 0.026 µM | > 50 µM | > 50 µM | > 50 µM |  |
